Experimental data reported in patent US6914045B2, “Glycopeptide antibiotics” (Wyeth Holdings Corporation, priority 2001, dated 2005).
Values after ≈ are worked out from the molar mass of the structure shown. Numbered stars: 1 amine (or outer) side, 2 acyl side, 3 side chain; on linkers, the order of the positions; unused ones are H or OH. Square brackets hold non-standard residues; d marks the D form. Peptide text beside a SMILES is read from it. ξ: configuration not given here. X3 = CC1(C)OCC2OC(N3C(=N)NCC3C(O)C(N[*:1])C(=O)[*:2])C3OC(C)(C)OC3C2O1; ξEnduracididine(βξ-OH,4'ξ) = N=C1NCC(C(O)C(N)C(=O)O)N1; ξPhe(βξ-Me) = CC(c1ccccc1)C(N)C(=O)O

Experiments:
Test in all cases: in vitro antibacterial evaluation, MIC by broth dilution
Type in all cases: cell-based
Enterococcus sp. = details: broth dilution, 18 hours at 35° C.
Outline: (§1)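 Test organisms, which included recent clinical isolates resistant to methicillin, penicillin and/or vancomycin, were inoculated at 5×10^5 CFU/mL into Muller-Hinton II […] containing antibiotic at 64-0.06 μg/mL. Minimum inhibitory concentrations were then read as the lowest level inhibiting growth.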

Staphylococcus sp. = details: broth dilution, 18 hours at 35° C.
Outline: as §1

Streptococcus sp. = details: broth dilution, 18 hours at 35° C.
Outline: as §1

Escherichia coli = details: 18 hours at 35° C.

CC(c1ccccc1)C1NC(=O)CNC(=O)C(CO)NC(=O)C(C(O)C2CNC(=N)N2C2OC(CO)C(O)C3OC(C)(C)OC32)NC(=O)C(C(O)C2CNC(=N)N2)NC(=O)C(Cc2ccc(OC3OC(CO)C(OC4OC5COC(C)(C)OC5C5OC(C)(C)OC45)C4OC(C)(C)OC34)cc2)NC1=O (stereo not drawn) [Example 229b]
MIC Enterococcus avium (GC 4558) (Enterococcus sp.): 64 µg/mL (≈ 44 µM)
MIC Enterococcus faecalis (ATCC 29212) (Enterococcus sp.): >128 µg/mL
MIC Enterococcus faecalis (GC 2242) (Enterococcus sp.): 128 µg/mL (≈ 87.9 µM)
MIC Enterococcus faecalis (GC 2691) (Enterococcus sp.): >128 µg/mL
MIC Enterococcus faecalis (GC 3059) (Enterococcus sp.): >128 µg/mL
MIC Enterococcus faecalis (GC 4552) (Enterococcus sp.): >128 µg/mL
MIC Enterococcus faecalis (GC 4553) (Enterococcus sp.): 128 µg/mL (≈ 87.9 µM)
MIC Enterococcus faecalis (GC 4554) (Enterococcus sp.): >128 µg/mL
MIC Enterococcus faecalis (GC 6189) (Enterococcus sp.): >128 µg/mL
MIC Enterococcus faecium (GC 2243) (Enterococcus sp.): >128 µg/mL
MIC Enterococcus faecium (GC 4556) (Enterococcus sp.): >128 µg/mL
MIC Enterococcus faecium (GC 4557) (Enterococcus sp.): 128 µg/mL (≈ 87.9 µM)
MIC Enterococcus faecalis (ATCC 29212) (Enterococcus sp.; inoculum 5×10^5 CFU/mL, strain ATCC 29212): >128 µg/mL
MIC Enterococcus faecalis (GC 2242) (Enterococcus sp.; inoculum 5×10^5 CFU/mL, strain GC 2242): 128 µg/mL (≈ 87.9 µM)
MIC Enterococcus faecium (GC 2243) (Enterococcus sp.; inoculum 5×10^5 CFU/mL, strain GC 2243): >128 µg/mL
MIC Enterococcus faecalis (GC 2691) (Enterococcus sp.; inoculum 5×10^5 CFU/mL, strain GC 2691): >128 µg/mL
MIC Enterococcus faecalis (GC 3059) (Enterococcus sp.; inoculum 5×10^5 CFU/mL, strain GC 3059): >128 µg/mL
MIC Enterococcus faecalis (GC 4552) (Enterococcus sp.; inoculum 5×10^5 CFU/mL, strain GC 4552): >128 µg/mL
MIC Enterococcus faecalis (GC 4553) (Enterococcus sp.; inoculum 5×10^5 CFU/mL, strain GC 4553): 128 µg/mL (≈ 87.9 µM)
MIC Enterococcus faecalis (GC 4554) (Enterococcus sp.; inoculum 5×10^5 CFU/mL, strain GC 4554): >128 µg/mL
MIC Enterococcus faecium (GC 4556) (Enterococcus sp.; inoculum 5×10^5 CFU/mL, strain GC 4556): >128 µg/mL
MIC Enterococcus faecium (GC 4557) (Enterococcus sp.; inoculum 5×10^5 CFU/mL, strain GC 4557): 128 µg/mL (≈ 87.9 µM)
MIC Enterococcus avium (GC 4558) (Enterococcus sp.; inoculum 5×10^5 CFU/mL, strain GC 4558): 64 µg/mL (≈ 44 µM)
MIC Enterococcus faecalis (GC 6189) (Enterococcus sp.; inoculum 5×10^5 CFU/mL, strain GC 6189): >128 µg/mL
MIC Coagulase Negative Staphylococcus (GC 4547) (Staphylococcus sp.): >128 µg/mL
MIC Coagulase Negative Staphylococcus (GC 4548) (Staphylococcus sp.): >128 µg/mL
MIC Coagulase Negative Staphylococcus (GC 4549) (Staphylococcus sp.): >128 µg/mL
MIC Coagulase Negative Staphylococcus (GC 4551) (Staphylococcus sp.): >128 µg/mL
MIC Coagulase Negative Staphylococcus (GC 6257) (Staphylococcus sp.): >128 µg/mL
MIC Staphylococcus aureus (ATCC 29213) (Staphylococcus sp.): >128 µg/mL
MIC Staphylococcus aureus (GC 1131) (Staphylococcus sp.): >128 µg/mL
MIC Staphylococcus aureus (GC 3051) (Staphylococcus sp.): >128 µg/mL
MIC Staphylococcus aureus (GC 3053) (Staphylococcus sp.): >128 µg/mL
MIC Staphylococcus aureus (GC 4541) (Staphylococcus sp.): >128 µg/mL
MIC Staphylococcus aureus (GC 4542) (Staphylococcus sp.): >128 µg/mL
MIC Staphylococcus aureus (GC 4544) (Staphylococcus sp.): >128 µg/mL
MIC Staphylococcus aureus (GC 4545) (Staphylococcus sp.): >128 µg/mL
MIC Staphylococcus aureus-SMITH (GC 4543) (Staphylococcus sp.): >128 µg/mL
MIC Staphylococcus haemolyticus (GC 4546) (Staphylococcus sp.): >128 µg/mL
MIC Staphylococcus aureus (ATCC 29213) (Staphylococcus sp.; strain ATCC 29213): >128 µg/mL
MIC Staphylococcus aureus (GC 1131) (Staphylococcus sp.; strain GC 1131): >128 µg/mL
MIC Staphylococcus aureus (GC 3051) (Staphylococcus sp.; strain GC 3051): >128 µg/mL
MIC Staphylococcus aureus (GC 3053) (Staphylococcus sp.; strain GC 3053): >128 µg/mL
MIC Staphylococcus aureus (GC 4541) (Staphylococcus sp.; strain GC 4541): >128 µg/mL
MIC Staphylococcus aureus (GC 4542) (Staphylococcus sp.; strain GC 4542): >128 µg/mL
MIC Staphylococcus aureus-SMITH (GC 4543) (Staphylococcus sp.; strain GC 4543): >128 µg/mL
MIC Staphylococcus aureus (GC 4544) (Staphylococcus sp.; strain GC 4544): >128 µg/mL
MIC Staphylococcus aureus (GC 4545) (Staphylococcus sp.; strain GC 4545): >128 µg/mL
MIC Staphylococcus haemolyticus (GC 4546) (Staphylococcus sp.; strain GC 4546): >128 µg/mL
MIC Coagulase Negative Staphylococcus (GC 4547) (Staphylococcus sp.; strain GC 4547): >128 µg/mL
MIC Coagulase Negative Staphylococcus (GC 4548) (Staphylococcus sp.; strain GC 4548): >128 µg/mL
MIC Coagulase Negative Staphylococcus (GC 4549) (Staphylococcus sp.; strain GC 4549): >128 µg/mL
MIC Coagulase Negative Staphylococcus (GC 4551) (Staphylococcus sp.; strain GC 4551): >128 µg/mL
MIC Coagulase Negative Staphylococcus (GC 6257) (Staphylococcus sp.; strain GC 6257): >128 µg/mL
MIC Streptococcus agalactiae (GC 4564) (Streptococcus sp.): >128 µg/mL
MIC Streptococcus pneumoniae (ATCC 6301) (Streptococcus sp.): 128 µg/mL (≈ 87.9 µM)
MIC Streptococcus pneumoniae (GC 1894) (Streptococcus sp.): 128 µg/mL (≈ 87.9 µM)
MIC Streptococcus pneumoniae (GC 4565) (Streptococcus sp.): 128 µg/mL (≈ 87.9 µM)
MIC Streptococcus pyogenes (GC 4563) (Streptococcus sp.): >128 µg/mL
MIC Streptococcus pneumoniae (ATCC 6301) (Streptococcus sp.; inoculum 5×10^5 CFU/mL, strain ATCC 6301): 128 µg/mL (≈ 87.9 µM)
MIC Streptococcus pneumoniae (GC 1894) (Streptococcus sp.; inoculum 5×10^5 CFU/mL, strain GC 1894): 128 µg/mL (≈ 87.9 µM)
MIC Streptococcus pyogenes (GC 4563) (Streptococcus sp.; inoculum 5×10^5 CFU/mL, strain GC 4563): >128 µg/mL
MIC Streptococcus agalactiae (GC 4564) (Streptococcus sp.; inoculum 5×10^5 CFU/mL, strain GC 4564): >128 µg/mL
MIC Streptococcus pneumoniae (GC 4565) (Streptococcus sp.; inoculum 5×10^5 CFU/mL, strain GC 4565): 128 µg/mL (≈ 87.9 µM)
MIC Escherichia coli (ATCC 25922) (Escherichia coli): >128 µg/mL
MIC Escherichia coli (GC 4559) (Escherichia coli): >128 µg/mL
MIC Escherichia coli (GC 4560) (Escherichia coli): 32 µg/mL (≈ 22 µM)

CC(c1ccccc1)C1NC(=O)CNC(=O)C(CO)NC(=O)C(C(O)C2CNC(=N)N2C2OC3COC(C)(C)OC3C3OC(C)(C)OC32)NC(=O)C(C(O)C2CNC(=N)N2)NC(=O)C(Cc2ccc(O)cc2)NC1=O (stereo not drawn) [Example 247] (cyclo(G[ξPhe(βξ-Me)]Y[ξEnduracididine(βξ-OH,4'ξ)][X3]S); configuration not given here)
MIC Enterococcus avium (GC 4558) (Enterococcus sp.): >64 µg/mL
MIC Enterococcus faecalis (ATCC 29212) (Enterococcus sp.): >64 µg/mL
MIC Enterococcus faecalis (GC 2242) (Enterococcus sp.): >64 µg/mL
MIC Enterococcus faecalis (GC 2691) (Enterococcus sp.): >64 µg/mL
MIC Enterococcus faecalis (GC 3059) (Enterococcus sp.): >64 µg/mL
MIC Enterococcus faecalis (GC 4552) (Enterococcus sp.): >64 µg/mL
MIC Enterococcus faecalis (GC 4553) (Enterococcus sp.): >64 µg/mL
MIC Enterococcus faecalis (GC 4554) (Enterococcus sp.): >64 µg/mL
MIC Enterococcus faecalis (GC 6189) (Enterococcus sp.): >64 µg/mL
MIC Enterococcus faecium (GC 2243) (Enterococcus sp.): >64 µg/mL
MIC Enterococcus faecium (GC 4556) (Enterococcus sp.): >64 µg/mL
MIC Enterococcus faecium (GC 4557) (Enterococcus sp.): >64 µg/mL
MIC Coagulase Negative Staphylococcus (GC 4547) (Staphylococcus sp.): >64 µg/mL
MIC Coagulase Negative Staphylococcus (GC 4548) (Staphylococcus sp.): >64 µg/mL
MIC Coagulase Negative Staphylococcus (GC 4549) (Staphylococcus sp.): >64 µg/mL
MIC Coagulase Negative Staphylococcus (GC 4551) (Staphylococcus sp.): >64 µg/mL
MIC Coagulase Negative Staphylococcus (GC 6257) (Staphylococcus sp.): >64 µg/mL
MIC Staphylococcus aureus (ATCC 29213) (Staphylococcus sp.): >64 µg/mL
MIC Staphylococcus aureus (GC 1131) (Staphylococcus sp.): >64 µg/mL
MIC Staphylococcus aureus (GC 3051) (Staphylococcus sp.): >64 µg/mL
MIC Staphylococcus aureus (GC 3053) (Staphylococcus sp.): >64 µg/mL
MIC Staphylococcus aureus (GC 4541) (Staphylococcus sp.): >64 µg/mL
MIC Staphylococcus aureus (GC 4542) (Staphylococcus sp.): >64 µg/mL
MIC Staphylococcus aureus (GC 4544) (Staphylococcus sp.): >64 µg/mL
MIC Staphylococcus aureus (GC 4545) (Staphylococcus sp.): >64 µg/mL
MIC Staphylococcus aureus-SMITH (GC 4543) (Staphylococcus sp.): >64 µg/mL
MIC Staphylococcus haemolyticus (GC 4546) (Staphylococcus sp.): >64 µg/mL
MIC Streptococcus agalactiae (GC 4564) (Streptococcus sp.): >64 µg/mL
MIC Streptococcus pneumoniae (ATCC 6301) (Streptococcus sp.): >64 µg/mL
MIC Streptococcus pneumoniae (GC 1894) (Streptococcus sp.): >64 µg/mL
MIC Streptococcus pneumoniae (GC 4565) (Streptococcus sp.): >64 µg/mL
MIC Streptococcus pyogenes (GC 4563) (Streptococcus sp.): >64 µg/mL
MIC Escherichia coli (ATCC 25922) (Escherichia coli): >64 µg/mL
MIC Escherichia coli (GC 4559) (Escherichia coli): >64 µg/mL
MIC Escherichia coli (GC 4560) (Escherichia coli): >64 µg/mL
